Here are results for one substance from patent US20230117205A1, “B7-H4 ANTIBODY-DRUG CONJUGATES FOR THE TREATMENT OF CANCER” (SEAGEN INC., priority 2021, published 2023).

The target in experiment [1] is T1, FcγRIII (Homo sapiens, UniProt P08637).
T1 construct: expressed in transfected cells; host or cells: Jurkat (NFAT-luciferase reporter)
Kind of experiment: FcγR Jurkat NFAT-luciferase reporter cell assay with SKBR3 target cells. It is filed as cell-based. On the procedure: (§1) Cellular FcγR signaling was measured in a cell-based assay that uses SKBR3 target cells that endogenously express B7-H4 and Jurkat effector cells engineered to express FcγRI, RIIa, or RIII and an NFAT (nuclear factor of activated T cells) driven luciferase reporter gene. […] The luciferase signal is proportional to the degree of FcγR-induced effector cell activation and serves as a surrogate for ADCC (FcγRIII) or ADCP (FcγRI/IIa).
(§2) Specifically, Jurkat effector cells engineered to express FcγRI, RIIa, or RIII and an NFAT (nuclear factor of activated T cells) driven luciferase reporter gene were thawed and cultured in NFAT reporter cell medium (RPMI 1640 Medium (Gibco #11875-093) supplemented with 4% HyClone™ Fetal Bovine Serum, Super Low IgG (Gibco #A33819-01), 1× Penicillin-Streptomycin (Gibco #15140-122), 1×MEM nonessential amino acids (Gibco #11140-050), 1× L-Glutamine (Gibco #25030-081), 1× Sodium pyruvate (Gibco #11360-070), Hygromycin (Invitrogen #10687), Antibiotic G-418 sulfate solution (Promega #V8091), HEPES (Gibco #15630)). The Jurkat FcγR signaling assay was then performed as follows:
(§3) The day before the assay, target SKBR3 cells were lifted using Versene (Gibco #15040-066), washed twice with PBS, and plated at 1.2×10^4 cells per well in 90 μL RPMI 1640 containing 10% low IgG FBS and penicillin/streptomycin in black-walled 96-well plates (Corning #3603). The following day, NFAT assay buffer was prepared by adding 4 mL low IgG serum to 100 mL of RPMI 1640, mixed, and warmed to 37° C. NFAT assay buffer was used to resuspend all cells and antibody dilutions. Stock dilution plates (10×) of each antibody were prepared at 100, 30, 10, 3, 1, 0.3, 0.1, 0.03, 0.01, and 0.003 μg/mL. […] Effector cells were counted, washed twice in PBS, and resuspended at 1×10^6 cells/mL in NFAT assay buffer. […] Luminescence was measured for all samples with the Envision 96 CTG protocol (Envision plate reader, PerkinElmer) after mixing on a shaker (covered with foil) for at least 5 minutes. Background (no cells) signal was subtracted from the raw luminescence signal prior to graphing.
In general terms: A reporter such as luciferase makes a cellular process visible.

For experiment [2], the target named is T2, FcγRI (Homo sapiens, UniProt P12314).
T2 construct: expressed in transfected cells; host or cells: Jurkat (NFAT-luciferase reporter)
T2 sequence (P12314 16-374): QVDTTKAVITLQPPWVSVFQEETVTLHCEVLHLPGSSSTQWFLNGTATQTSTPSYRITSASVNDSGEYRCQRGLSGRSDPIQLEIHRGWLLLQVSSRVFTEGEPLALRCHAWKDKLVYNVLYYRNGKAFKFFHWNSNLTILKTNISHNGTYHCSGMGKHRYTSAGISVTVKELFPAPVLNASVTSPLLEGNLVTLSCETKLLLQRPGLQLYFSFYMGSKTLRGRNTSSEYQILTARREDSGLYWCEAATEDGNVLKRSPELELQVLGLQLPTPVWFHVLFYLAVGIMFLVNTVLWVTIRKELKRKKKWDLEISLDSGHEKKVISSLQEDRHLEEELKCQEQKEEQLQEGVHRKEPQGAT
Described as above. Type of experiment: cell-based. As to the method:
as §1, §2, §3

Experiment [3] addresses T3, FcγRIIa (Homo sapiens, UniProt P12318).
T3 construct: expressed in transfected cells; host or cells: Jurkat (NFAT-luciferase reporter)
T3 sequence (P12318 34-317): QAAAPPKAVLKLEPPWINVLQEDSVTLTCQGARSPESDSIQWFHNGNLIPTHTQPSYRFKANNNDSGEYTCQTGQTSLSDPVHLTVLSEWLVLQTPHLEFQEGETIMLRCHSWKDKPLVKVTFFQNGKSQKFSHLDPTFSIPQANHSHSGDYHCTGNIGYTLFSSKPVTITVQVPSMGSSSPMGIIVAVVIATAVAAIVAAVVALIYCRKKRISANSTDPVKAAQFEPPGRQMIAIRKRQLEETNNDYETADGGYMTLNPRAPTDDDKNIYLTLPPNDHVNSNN
The experiment is described as above. Type of experiment: cell-based. On the procedure:
as §1, §2, §3

The test system of experiment [4] is Ovarian carcinoma PDX models. Kind of experiment: Ovarian carcinoma patient-derived xenograft models. It is filed as in vivo, mice. The note with it: 3 mg/kg q7dx3; for % TGI: vs untreated. On the procedure: Tumor size and body weight were measured twice weekly, and the study was terminated when tumors in the control group reached 1500 mm^3 or up to Day 28, whichever occurred first, or maximum up to Day 60.
Specifically, Stock mice were bilaterally implanted with fragments from one of the Champions TumorGraft® models representing human HR^+ BC or ovarian cancer. After the tumors reached 1000-1500 mm^3, they were harvested, and the tumor fragments were implanted subcutaneously (s.c.) in the left flank of the female study mice. Each animal was implanted with a specific passage lot and documented. Tumor growth was monitored twice a week using digital calipers, and the tumor volume (TV) was calculated using the formula (0.52×[length×width^2]). When the TV reached approximately 150-300 mm^3, animals were matched by tumor size and assigned into control (untreated) or treatment groups (n=3 animals/group). Each animal in the treatment groups was dosed with 3 mg/kg of ADC every seven days for three total doses (q7dx3). Tumor size and body weight were measured twice weekly, and the study was terminated when tumors in the control group reached 1500 mm^3 or up to Day 28, whichever occurred first, or maximum up to Day 60.
Inhibition of tumor growth was determined by calculating the percent TGI on the day at which animals in the control group were terminated (100%×[1−(final MTV−initial MTV of a treated group)/(final MTV−initial MTV of the control group)]). Treatment started on Day 0.
Background: Xenograft models place foreign cells or tissue in a host animal.

Experiment [5] relates to MX-1 xenograft model. The experiment in a line: MX-1 xenograft, Study MX1-2. It is filed as in vivo, SCID mice. The note with it: 3 mg/kg, three weekly doses, i.p. As to the method:
Tumor volume was measured twice weekly until study day 84.
Female SCID mice were implanted with 5×10^5 MX1 tumor cells in 25% Matrigel H C (Corning #354248) subcutaneously. Once tumor volumes reached 100 mm^3, mice were randomized into treatment groups of 5 mice each and dosed with 3 mg/kg of ADC every seven days for three total doses (q7dx3). Tumor volumes were measured twice per week, and animals were euthanized when tumor volume reached 700-1000 mm^3. Stock concentrations of ADC were diluted to a desired concentration (with 0.01% Tween20 in PBS) and injected i.p. into each treatment group.

T1 sequence (P08637 17-254): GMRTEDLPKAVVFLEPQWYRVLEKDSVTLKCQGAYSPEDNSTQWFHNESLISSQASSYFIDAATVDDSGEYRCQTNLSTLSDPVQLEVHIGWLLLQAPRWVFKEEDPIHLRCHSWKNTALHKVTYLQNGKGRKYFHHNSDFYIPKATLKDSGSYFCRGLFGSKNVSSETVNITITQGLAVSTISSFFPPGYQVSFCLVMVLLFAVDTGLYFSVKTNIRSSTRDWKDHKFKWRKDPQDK

For the substance “SGN-B7H4V: ADC of fully human IgG1 anti-B7-H4 mAb conjugated to monomethyl auristatin E (MMAE) via a protease-cleavable valine-citrulline linker (vedotin)”, the FcγRIII-mediated luciferase activity result in experiment [1] is “dose-dependent increase”. In addition, the FcγRI-mediated luciferase activity entry in experiment [2] is “dose-dependent increase”. The FcγRIIa-mediated luciferase activity result in experiment [3] is “not FcγRIIa-mediated luciferase activity”. In addition, the “% TGI” value is recorded as 110% in experiment [4] (Ovarian_1, Day 48); 103% in experiment [4] (Ovarian_2, Day 41); 84% in experiment [4] (Ovarian_3, Day 53); −57% in experiment [4] (Ovarian_4, Day 52); 83% in experiment [4] (Ovarian_5, Day 36); −33% in experiment [4] (Ovarian_6, Day 23). Moreover, the “PDX models with tumor regression or tumor growth delay (e.g. TGI>50%)” value in experiment [4] (ovarian carcinoma) is on record as 4/6. Further, the “anti-tumor activity (tumor volume)” value in experiment [5] was “regression of tumor volumes in all mice”. In addition, the “mice with sustained regression” value in experiment [5] is recorded as 4 of the 5.
